{
  "source": "BindingDB's records for doi:10.7270/Q2D798VP",
  "about": "(Broad Institute, 2009)",
  "data": [
    {"target": "T1, Zinc finger protein mex-5 (Caenorhabditis elegans, UniProt Q9XUB2)", "T1 sequence (Q9XUB2 whole entry)": "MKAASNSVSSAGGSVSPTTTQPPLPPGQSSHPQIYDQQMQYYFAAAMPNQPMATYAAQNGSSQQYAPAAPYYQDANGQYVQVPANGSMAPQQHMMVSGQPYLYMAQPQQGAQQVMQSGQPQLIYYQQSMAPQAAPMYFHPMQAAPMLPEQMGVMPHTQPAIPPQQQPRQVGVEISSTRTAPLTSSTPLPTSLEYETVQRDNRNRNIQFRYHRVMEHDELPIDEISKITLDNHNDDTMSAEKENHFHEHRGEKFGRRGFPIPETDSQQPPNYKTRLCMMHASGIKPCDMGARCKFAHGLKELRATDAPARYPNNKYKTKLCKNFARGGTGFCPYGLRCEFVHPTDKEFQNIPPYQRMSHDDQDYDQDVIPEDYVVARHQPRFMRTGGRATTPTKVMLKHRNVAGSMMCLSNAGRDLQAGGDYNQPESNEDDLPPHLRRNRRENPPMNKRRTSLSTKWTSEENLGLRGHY", "assay": "MEX-5/TCR-2 RNA interaction inhibitors, dose response, biochemical, C. elegans, fluorescence polarization (AID 1960)", "units": {"EC50": "µM"}, "values": [
      {"compound": "COc1cc(S(=O)(=O)Nc2ccc(C)cc2)ccc1NC=C1C(=O)N(C)C(=O)C(C#N)=C1C", "note": "[4-[[(Z)-(5-cyano-1,4-dimethyl-2,6-dioxopyridin-3-ylidene)methyl]amino]-3-methoxy-N-(4-methylphenyl)benzenesulfonamide]", "EC50": 23.9},
      {"compound": "Cc1cc(CN=Nc2ccc([N+](=O)[O-])cn2)c(C)n1-c1cccc(C(=O)O)c1", "note": "[3-[2,5-dimethyl-3-[[(5-nitro-2-pyridinyl)hydrazinylidene]methyl]-1-pyrrolyl]benzoic acid]", "EC50": 37.7},
      {"compound": "C=c1c(C(=O)OC)c(O)c(=Cc2ccco2)n1-c1ccccc1", "note": "[MLS000780287]", "EC50": 5.06},
      {"compound": "Cc1ccc(C(=O)C2C(=O)C(=O)N(Cc3ccco3)C2c2ccc(N(C)C)cc2)o1", "note": "(configuration not stated) [2-[4-(dimethylamino)phenyl]-1-(2-furanylmethyl)-4-hydroxy-3-[(5-methyl-2-furanyl)-oxomethyl]-2H-pyrrol-5-one]", "EC50": "> 300"},
      {"compound": "C=CCOc1cccc(C2C(C(=O)c3ccco3)C(=O)C(=O)N2Cc2ccco2)c1", "note": "(configuration not stated) [1-(2-furanylmethyl)-3-[2-furanyl(oxo)methyl]-4-hydroxy-2-(3-prop-2-enoxyphenyl)-2H-pyrrol-5-one]", "EC50": "> 300"},
      {"compound": "COc1ccccc1OCC(=O)NN=Cc1c(O)ccc2ccccc12", "EC50": 131},
      {"compound": "O=C1NC(=O)N(CCc2ccccc2)C(=O)C1=CNCCCn1ccnc1", "note": "[(5E)-5-[(3-imidazol-1-ylpropylamino)methylene]-1-phenethyl-barbituric acid]", "EC50": "> 300"},
      {"compound": "Cc1cc(-c2ccccc2)nc(N=NCc2ccc(O)cc2O)n1", "note": "[SMR000513422]", "EC50": 54},
      {"compound": "C=CCSc1nnc(N2C(=O)C(=O)C(C(=O)c3ccco3)C2c2ccccc2F)s1", "note": "(configuration not stated) [1-[5-(allylthio)-1,3,4-thiadiazol-2-yl]-5-(2-fluorophenyl)-4-(2-furoyl)-3-hydroxy-3-pyrrolin-2-one]", "EC50": 54.8},
      {"compound": "COc1ccc(N2C(=O)NC(=O)C(=Cc3cn(C)c4ccccc34)C2=O)cc1", "note": "[MLS001196573]", "EC50": 1.15},
      {"compound": "COc1cc(CN=Nc2[nH]c(=O)nnc2C)ccc1O", "note": "[5-[2-[(E)-(3-methoxy-4-oxocyclohexa-2,5-dien-1-ylidene)methyl]hydrazinyl]-6-methyl-2H-1,2,4-triazin-3-one]", "EC50": 31.1},
      {"compound": "C=CC(=O)N1CCCC(n2nc(-c3ccc(Oc4ccccc4)cc3)c3c(N)ncnc32)C1", "note": "(configuration not stated) [US8497277, 4]", "EC50": "> 300"},
      {"compound": "Cc1ccc(C(=O)Cc2nc3ccccc3oc2=O)cc1", "note": "[(3Z)-3-[2-(4-methylphenyl)-2-oxidanylidene-ethylidene]-4H-1,4-benzoxazin-2-one]", "EC50": "> 300"},
      {"compound": "COc1cc(C2C3=C(CC(C)(C)CC3=O)OC(=N)C2C#N)ccc1OCCN1CCOCC1", "note": "(configuration not stated) [MLS000779948]", "EC50": "> 300"},
      {"compound": "Cc1ncc(C=O)c(CNNC(=O)c2cc(Br)ccc2O)c1O", "note": "[5-bromanyl-N'-[(Z)-[5-(hydroxymethyl)-2-methyl-3-oxidanylidene-pyridin-4-ylidene]methyl]-2-oxidanyl-benzohydrazide]", "EC50": 5.72},
      {"compound": "O=C1N=c2ccccc2=C1NNc1cccc(Cl)c1", "note": "[(3E)-1H-indole-2,3-dione 3-[(3-chlorophenyl)hydrazone]]", "EC50": 45.4},
      {"compound": "CCOC(=O)c1c2ccc(OCC(=O)NN=Cc3ccc(Cl)cc3)cc2n2ccccc12", "note": "[3-[2-[2-[(4-chlorophenyl)methylidene]hydrazinyl]-2-oxoethoxy]-10-pyrido[1,2-a]indolecarboxylic acid ethyl ester]", "EC50": 160},
      {"compound": "Cc1sc2ncnc(N=NC(C)c3ccccn3)c2c1C", "note": "(configuration not stated) [5,6-dimethyl-N-(1-pyridin-2-ylethylideneamino)thieno[2,3-d]pyrimidin-4-amine]", "EC50": 46.7},
      {"compound": "Cc1[nH]c2ccccc2c1/C=C1\\N=C(c2ccc(F)cc2)OC1=O", "note": "[2-(4-fluorophenyl)-4-[(2-methyl-1H-indol-3-yl)methylene]-1,3-oxazol-5(4H)-one]", "EC50": 5.53},
      {"compound": "O=C1C(=Nc2ccccc2O)C(Cl)C(=O)N1c1ccccc1", "note": "(configuration not stated) [3-Chloro-4-(2-hydroxy-phenylamino)-1-phenyl-pyrrole-2,5-dione]", "EC50": 73},
      {"compound": "COC1=CC(CN=Nc2[nH]c(=O)nnc2C)C=C([N+](=O)[O-])C1=O", "note": "(configuration not stated) [5-[[(E)-(3-methoxy-5-nitro-4-oxo-1-cyclohexa-2,5-dienylidene)methyl]hydrazo]-6-methyl-2H-1,2,4-triazin-3-one]", "EC50": 10.8},
      {"compound": "O=C1NC(=O)N(CCc2ccc(F)cc2)C(=O)C1=CNNC(=O)c1ccccc1", "note": "[N'-[(E)-[1-[2-(4-fluorophenyl)ethyl]-2,4,6-trioxo-1,3-diazinan-5-ylidene]methyl]benzohydrazide]", "EC50": "> 300"},
      {"compound": "N#CC(C(=O)c1cc2ccccc2o1)c1nc2ccccc2s1", "note": "(configuration not stated) [(2Z)-3-(1-benzofuran-2-yl)-2-(3H-1,3-benzothiazol-2-ylidene)-3-oxidanylidene-propanenitrile]", "EC50": "> 300"},
      {"compound": "COC(=O)Cn1cc(C=C2C(=O)NC(=O)N(c3ccccc3)C2=O)c2ccccc21", "note": "[[3-(2,4,6-Trioxo-1-phenyl-tetrahydro-pyrimidin-5-ylidenemethyl)-indol-1-yl]-acetic acid methyl ester]", "EC50": 143},
      {"compound": "COc1ccc(N=CCC(=O)c2ccc(C)cc2)cc1OC", "note": "[SMR000269732]", "EC50": "> 300"},
      {"compound": "Cc1ccc(N=CC2Sc3ccccc3NC2=O)cc1", "note": "(configuration not stated) [(2E)-2-(p-toluidinomethylene)-4H-1,4-benzothiazin-3-one]", "EC50": "> 300"},
      {"compound": "O=C1NC(=O)N(c2cccc(F)c2)C(=O)C1=Cc1c[nH]c2ccccc12", "EC50": 36.6},
      {"compound": "N#CC1C(=N)OC2=C(C(=O)CCC2)C1c1ccc2c(c1)OCO2", "note": "(configuration not stated)", "EC50": "> 300"},
      {"compound": "Cc1cc(CN=Nc2ccc([N+](=O)[O-])cn2)c(C)n1-c1ccc(C(=O)O)cc1", "note": "[4-{2,5-dimethyl-3-[2-(5-nitro-2-pyridinyl)carbonohydrazonoyl]-1H-pyrrol-1-yl}benzoic acid]", "EC50": 111},
      {"compound": "O=C(O)c1cc(-c2ccc(C=C3NC(=O)N(c4ccc(Cl)cc4)C3=O)o2)ccc1Cl", "note": "[2-chloranyl-5-[5-[(Z)-[1-(4-chlorophenyl)-2,5-bis(oxidanylidene)imidazolidin-4-ylidene]methyl]furan-2-yl]benzoic acid]", "EC50": 38.6},
      {"compound": "COc1ccc(NC=C2C(=O)NC(=S)N(Cc3ccccc3)C2=O)c(OC)c1", "note": "[1-Benzyl-5-[1-(2,4-dimethoxy-phenylamino)-meth-(Z)-ylidene]-2-thioxo-dihydro-pyrimidine-4,6-dione]", "EC50": "> 300"},
      {"compound": "C=c1c(C(=O)OC)c(O)c(=Cc2cccs2)n1-c1ccc(Cl)cc1", "note": "[(5E)-1-(4-chlorophenyl)-2-methyl-4-oxo-5-(thiophen-2-ylmethylidene)-3-pyrrolecarboxylic acid methyl ester]", "EC50": "> 300"},
      {"compound": "O=C(NN=CC1=CC(=O)C(=O)CC1)NN=CC1=CC(=O)C(=O)CC1", "note": "[1,3-bis[[(Z)-(3-hydroxy-4-oxocyclohexa-2,5-dien-1-ylidene)methyl]amino]urea]", "EC50": 4.86},
      {"compound": "CC(=N)C(C#N)C(=O)CSc1ncnc2ccccc12", "note": "(configuration not stated) [(E)-3-amino-2-(2-quinazolin-4-ylsulfanylacetyl)but-2-enenitrile]", "EC50": 8.02},
      {"compound": "C=CCOc1ccc(C2C(C(=O)c3ccco3)C(=O)C(=O)N2c2nnc(C)s2)cc1", "note": "(configuration not stated) [3-(furan-2-carbonyl)-4-hydroxy-1-(5-methyl-1,3,4-thiadiazol-2-yl)-2-(4-prop-2-enoxyphenyl)-2H-pyrrol-5-one]", "EC50": "> 300"},
      {"compound": "COc1ccccc1N1C(=O)NC(=O)C(=Cc2c[nH]c3ccccc23)C1=O", "note": "[SMR000495900]", "EC50": "> 300"},
      {"compound": "C=CCOc1ccc(C2C(C(=O)c3cccs3)C(=O)C(=O)N2c2nnc(C)s2)cc1", "note": "(configuration not stated) [1-(5-methyl-1,3,4-thiadiazol-2-yl)-4-oxidanyl-2-(4-prop-2-enoxyphenyl)-3-thiophen-2-ylcarbonyl-2H-pyrrol-5-one]", "EC50": 3.06}
    ]}
  ]
}
